Series [1] is described as follows: plasma of DIO mice 4 h after last dosing on treatment day 6 (SC, BID). Conditions: DIO mice (male C57BL/6 J), up to 4 h after last dosing on treatment day 6.
Series [2] can be described thus: plasma from cardiac blood samples of DIO mice dosed with GUB03385 (SC). The note with it: DIO mice (male C57BL/6 J), up to 120 min.
The target in series [3] is T1, human prolactin releasing peptide receptor (GPR10) (Homo sapiens, UniProt P49683).
T1 sequence (P49683 1-370): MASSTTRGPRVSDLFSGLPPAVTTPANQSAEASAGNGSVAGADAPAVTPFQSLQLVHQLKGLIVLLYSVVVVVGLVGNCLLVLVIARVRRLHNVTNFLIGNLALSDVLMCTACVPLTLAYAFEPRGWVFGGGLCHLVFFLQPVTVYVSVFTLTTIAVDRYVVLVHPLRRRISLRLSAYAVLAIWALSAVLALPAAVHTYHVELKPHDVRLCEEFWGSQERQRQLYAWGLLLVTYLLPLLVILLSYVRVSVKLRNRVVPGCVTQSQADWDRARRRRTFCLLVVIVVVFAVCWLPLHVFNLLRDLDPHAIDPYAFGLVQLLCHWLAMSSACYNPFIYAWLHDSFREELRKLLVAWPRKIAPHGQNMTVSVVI
The experiment in a line: GPR10 functional activity assay (IP1, HTRF). Type of series: cell-based. Conditions: Chem-1 cells stably expressing human GPR10, 10.000 cells/well; HTRF IP1 (CisBio); 30 min at 37 °C; IP1 stimulation buffer with 0.05% casein; 11 concentrations. Background: Time-resolved FRET reads energy transfer from a long-lived donor to a nearby acceptor.

The target in the next series is human NPFF2R (Homo sapiens, UniProt Q9Y5X5). The experiment in a line: NPFF2R functional activity assay (cAMP, HTRF). Type of series: cell-based. The note with it: CHO-K1 cells stably expressing human NPFF2R, 1500 cells/well; HTRF cAMP (CisBio); 3 µM forskolin (~90% activity level); 30 min; DPBS, 0.5 mM IBMX, 0.05% casein; 11 concentrations. How it is done: Figure 3 GPR10 and NPFF2R profiling of in vivo metabolites of GUB03385. […] (b) cAMP measurements in human NPFF2R CHO-K cells (HTRF technology, CisBio) at a fixed concentration of 3 µM forskolin after 30 min. incubation at room temperature with metabolites and the native peptide NPSF. Representative curves of three determinations.
human NPFF2R, sequence (Q9Y5X5 whole entry): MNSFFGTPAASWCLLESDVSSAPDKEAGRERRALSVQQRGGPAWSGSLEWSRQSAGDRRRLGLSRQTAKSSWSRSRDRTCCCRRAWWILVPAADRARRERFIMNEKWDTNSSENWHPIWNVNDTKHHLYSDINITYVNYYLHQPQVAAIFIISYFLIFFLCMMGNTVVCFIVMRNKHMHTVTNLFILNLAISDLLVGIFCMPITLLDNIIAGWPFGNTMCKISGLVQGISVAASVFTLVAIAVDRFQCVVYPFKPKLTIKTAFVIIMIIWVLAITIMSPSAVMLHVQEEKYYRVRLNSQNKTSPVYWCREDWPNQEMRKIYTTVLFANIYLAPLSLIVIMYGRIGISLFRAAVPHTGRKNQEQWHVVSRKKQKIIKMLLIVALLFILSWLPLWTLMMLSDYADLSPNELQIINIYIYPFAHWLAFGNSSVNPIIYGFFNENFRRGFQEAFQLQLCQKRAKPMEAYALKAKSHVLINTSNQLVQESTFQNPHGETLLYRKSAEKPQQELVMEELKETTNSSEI
The Homogenous Time Resolved Fluorescence (HTRF) technology optimized for Gq coupled receptors has thoroughly been described in the CisBio IP1 kit manual (#62IPAPEC) and in the cAMP assay kit manual for Gi coupled receptors (#62AM9PEC). Briefly, this technic is based on a competitive immunoassay using cryptate-labelled anti-cAMP or anti-IP1 antibodies and d2-labeled cAMP or IP1. In the absence of cellular cAMP or IP1, the anti-cryptate conjugate may get into proximity to the d2 conjugate and energy (FRET) can be transferred from cryptate to d2. Chem-1 cells stably expressing the human prolactin releasing peptide receptor (GPR10, Eurofins, # HTS057C) and irradiated CHO-K1 cells stably expressing the human NPFF2R (PerkinElmer, #ES-490-CF) were applied as cells in suspension, brought to life from frozen cell stocks immediately before assay performance. 384-Well (Corning, #4513) assay formats with a total assay volume of 20 µl were applied. GPR10 cells (10.000 cells/well) were incubated with agonist peptides and the NPFF2R cells (1500 cells/well) were incubated with agonist peptides and forskolin (~ 90% activity level) for 30 min at 37 °C using IP1 kit stimulation buffer and DPBS (Sigma, #D8537) containing 0.5 mM IBMX (Sigma, # I5879), receptively. Both stimulation buffers were supplemented with 0.05% casein (Sigma, # C4765-10 ml). After addition of HTRF® detection reagents and incubation with shaking (2400 rpm) for one hour at room temperature signals at 620 and 665 nm (raw counts: ratio of 665/620) were detected at a ClarioStar plate reader (BMG Labtech, Ortenberg, Germany). Concentration–response evaluation of compounds was performed with 11 concentrations of agonist peptides (covering 3 decades) and EC50 values were calculated by nonlinear regression using sigmoid concentration–response with variable slope. Data were analysed using GraphPad v9.1 software (GraphPad, La Jolla, CA).

“Also recorded” adds a separate entry of the source. Some results are limits rather than exact numbers.

Broadly, the EC50 is the midpoint of the concentration-response curve.

Take “SRGK*RPVGRF (K* lipid chain: C18 γE OEG OEG)”: the fragment found result in series [1] is “GUB08251”.
Turning to “SRTHRHSMEIRTPDINPAWYASRGK*RPVGRF (K* lipid chain: C18 γE OEG OEG; C-terminally amidated)”, in series [2], the fragment found result is recorded as “GUB08247: ASRGK*RPVG (C18 γE OEG OEG), major, 30 min; also recorded: GUB08248: SRGK*RPVGRF (C18 γE OEG OEG), major, 30 min; also recorded: GUB08249: SRGK*RPVG (C18 γE OEG OEG), major, 30 min; also recorded: GUB08250: SRGK*RPV (C18 γE OEG OEG), major, 30 min; also recorded: GUB08251: GK*RPVGRF (C18 γE OEG OEG), major, 60 min; also recorded: GUB08252: K*RPVGR (C18 γE OEG OEG), major, 60 min; also recorded: GUB08253: K*RPVG (C18 γE OEG OEG), major, 60 min; also recorded: GUB08254: K*RPV (C18 γE OEG OEG), major, 60 min”.
In the case of “SRGK*RPVGRF (K* lipid chain: C18DA γE OEG OEG)”, the fragment found result in series [1] is “GUB10195”.
For the compound `CC(C)C[C@H](NC(=O)[C@H](Cc1ccccc1)NC(=O)[C@H](C)NC(=O)[C@H](CCC(N)=O)NC(=O)[C@@H](N)CO)C(=O)N[C@@H](Cc1ccccc1)C(=O)N[C@@H](CCC(N)=O)C(=O)N1CCC[C@H]1C(=O)N[C@@H](CCC(N)=O)C(=O)N[C@@H](CCCNC(=N)N)C(=O)N[C@@H](Cc1ccccc1)C(N)=O` [NPSF, neuropeptide SF], the values for the EC50 (in series [3]; on human NPFF2R) were more than 5000 nM and 5.6 nM, respectively.

Values taken from PMC8807614 (Scientific Reports, 2022).
